Laboratory results as given in US6534518B1, “Polysubstituted 6-phenylphenanthridines with PDE-IV inhibiting activity” (Altana Pharma AG, priority 1999, dated 2003).

How the values were obtained:
PDE4 = assay: Inhibition of PDE4 activity (method of Bauer and Schwabe, microtiter plates); assay type: biochemical; settings: inhibitory concentration as −log IC50 (mol/l)
Experimental: The activity test was carried out according to the method of Bauer and Schwabe, which was adapted to microtiter plates (Naunyn-Schmiedeberg's Arch. Pharmacol. 1980, 311, 193-198). The PDE reaction takes place in the first step here. In a second step, the resulting 5′-nucleotide is cleaved by a 5′-nucloetidase of the snake venom of Crotalus atrox to the uncharged nucleoside. In the third step, the nucleoside is separated from the remaining charged substrate on ion-exchange columns. The columns are eluted directly into minivials, into which 2 ml of scintillator fluid are additionally added for counting, using 2 ml of 30 mM ammonium formate (pH 6.0).
The inhibitory values determined for the compounds according to the invention [inhibitory concentration as −log IC50 (mol/l)] follow from the following Table A, in which the numbers of the compounds correspond to the numbers of the examples.

| SMILES | −log IC50 (inhibition of the PDE4 activity) (PDE4) | melting point |
| --- | --- | --- |
| COc1cc2c(cc1OC)C1CCCCC1N=C2c1cc(C(F)(F)F)cc(C(F)(F)F)c1 (single isomer, unassigned; (-)) [Compound 2, (−)-cis-6-(Bis-3,5-trifluoromethylphenyl)-8,9-dimethoxy-1,2,3,4,4a,10b-hexahydrophenanthridine] | 6.93 | – |
| CCOc1cc(C2=N[C@H]3CCCC[C@H]3c3cc(OC)c(OC)cc32)cc(OCC)c1OCC [Compound 6, (−)-cis-8,9-Dimethoxy-6-(3,4,5-triethoxyphenyl)-1,2,3,4,4a,10b-hexahydrophenanthridine] | 7.81 | – |
| COc1cc2c(cc1OC)[C@@H]1CCCC[C@@H]1N=C2c1cc(OC)c(OC)c(S(C)(=O)=O)c1 [Compound 5, (−)-cis-6-(3-Methanesulfonyl-4,5-dimethoxyphenyl)-8,9-dimethoxy-1,2,3,4,4a,10b-hexahydrophenanthridine] | 7.57 | – |
| COc1cc2c(cc1OC)[C@@H]1CCCC[C@@H]1N=C2c1ccc([N+](=O)[O-])c([N+](=O)[O-])c1 [Compound 1, (−)-cis-8,9-Dimethoxy-6-(3,4-dinitrophenyl)-1,2,3,4,4a,10b-hexahydrophenanthridine] | 7.26 | 162 to 165 °C |
| COc1cc2c(cc1OC)[C@@H]1CCCC[C@@H]1N=C2c1cc(OC)c(OC)c(OC)c1 [Compound 4, (−)-cis-8,9-Dimethoxy-6-(3,4,5-trimethoxyphenyl)-1,2,3,4,4a,10b-hexahydrophenanthridine] | 6.96 | – |
| COc1cc2c(cc1OC)[C@@H]1CCCC[C@@H]1N=C2c1cc([N+](=O)[O-])cc([N+](=O)[O-])c1 [Compound 3, (−)-cis-8,9-Dimethoxy-6-(3,5-dinitrophenyl)-1,2,3,4,4a,10b-hexahydrophenanthridine] | 6.56 | – |
